What was measured:
Format in all cases: cell-based, human
MKL-2 cells (VP-MCC) = assay: qHTS cell viability (CellTiter-Glo, 72 h; primary and follow-up small molecule screen); conditions: MKL2, 72h
WAGA cells (VP-MCC) = assay: as above; conditions: WAGA, 72h
[1] = system: VP-MCC cell lines (WAGA, MKL-1, MKL-2); assay: qHTS cell viability, VP-MCC cell lines as a group (mean AUC, VP.MCC.avg); conditions: re-tested in triplicate, follow-up screen
MCC13 cells (VN-MCC) = assay: qHTS cell viability (CellTiter-Glo, 72 h; primary and follow-up small molecule screen); conditions: MCC13, 72h
UISO cells (VN-MCC) = assay: as above; conditions: UISO, 72h
MCC26 cells (VN-MCC) = assay: as above; conditions: MCC26, 72h
GDSC cancer cell lines = assay: Genomics of Drug Sensitivity in Cancer (GDSC) IC50 comparison across cancer cell lines; conditions: own IC50 estimates compared with public IC50 data
Method: Palo Alto, CA, USA) for these compounds from our small molecule screen. Following the graphing format in the GDSC database, compounds were ranked by IC50 and plotted in Rstudio using ggplot2, ggrepel, and scales packages. page 9: Supplementary Fig. S6. Au rora kinase inhibi tors mor e potentl y reduc e viability in VP-MCC than VN-MCC. […] Cell viability was measured by CellTiter- Glo at 72 h and by manual cell counts at 144 h. […] Consistent across n = 3 replicates . B) IC50 values (molar) for each aurora kinase inhibitor in each MCC cell line. […] IC50 values from GDSC (Gray-scale and green) were combined with IC50 values determined in our study (purple) and then ranked. n = number of experimental replicates for each cell line.

MKL-1 cells (VP-MCC) = assay: qHTS cell viability (CellTiter-Glo, 72 h; primary and follow-up small molecule screen); conditions: MKL1, 72h

`CCn1cc(-c2ccnc3[nH]c(-c4cccc(CN(C)C)c4)cc23)c(-c2ccc(NC(=O)N(C)C)cc2)n1` [GSK-1070916A, reference compound] gave a Percent viability (MKL-2 cells (VP-MCC); Log (M) -5.33646) of 1.0%, a Percent viability (MKL-2 cells (VP-MCC); Log (M) -5.81358) of 2.3% and a Percent viability (MKL-2 cells (VP-MCC); Log (M) -6.2907) of 21.5%. The Percent viability (MKL-2 cells (VP-MCC); Log (M) -6.76782) was 34.0%, the Percent viability (MKL-2 cells (VP-MCC); Log (M) -7.24494) was 33.8% and the Percent viability (MKL-2 cells (VP-MCC); Log (M) -7.72207) was 50.1%. It also gave a Percent viability (MKL-2 cells (VP-MCC); Log (M) -8.19919) of 59.6%, a Percent viability (MKL-2 cells (VP-MCC); Log (M) -8.67631) of 59.6% and a Percent viability (MKL-2 cells (VP-MCC); Log (M) -9.15343) of 98.0%. For the same molecule, the Percent viability (MKL-2 cells (VP-MCC); Log (M) -9.63055) was 107.1%, the Percent viability (MKL-2 cells (VP-MCC); Log (M) -10.1077) was 88.8% and the Percent viability (WAGA cells (VP-MCC); Log (M) -5.33646) was 2.1%. For the same molecule, the Percent viability (WAGA cells (VP-MCC); Log (M) -5.81358) was 12.6%, the Percent viability (WAGA cells (VP-MCC); Log (M) -6.2907) was 31.4% and the Percent viability (WAGA cells (VP-MCC); Log (M) -6.76782) was 40.3%. The Percent viability (WAGA cells (VP-MCC); Log (M) -7.24494) was 26.0%, the Percent viability (WAGA cells (VP-MCC); Log (M) -7.72207) was 27.1% and the Percent viability (WAGA cells (VP-MCC); Log (M) -8.19919) was 28.3%. It also gave a Percent viability (WAGA cells (VP-MCC); Log (M) -8.67631) of 104.6%, a Percent viability (WAGA cells (VP-MCC); Log (M) -9.15343) of 100.0% and a Percent viability (WAGA cells (VP-MCC); Log (M) -9.63055) of 103.0%. The Percent viability (WAGA cells (VP-MCC); Log (M) -10.1077) was 100.0%, the “VP-MCC viability (in words)” value [1] was “consistently and potently reduced VP-MCC viability” and the Percent viability (MCC13 cells (VN-MCC); Log (M) -5.33646) was 0.9%. The Percent viability (MCC13 cells (VN-MCC); Log (M) -5.81358) was 37.2%, the Percent viability (MCC13 cells (VN-MCC); Log (M) -6.2907) was 74.5% and the Percent viability (MCC13 cells (VN-MCC); Log (M) -6.76782) was 88.4%. For the same molecule, the Percent viability (MCC13 cells (VN-MCC); Log (M) -7.24494) was 96.7%, the Percent viability (MCC13 cells (VN-MCC); Log (M) -7.72207) was 113.8% and the Percent viability (MCC13 cells (VN-MCC); Log (M) -8.19919) was 87.1%. The Percent viability (MCC13 cells (VN-MCC); Log (M) -8.67631) was 100.5%, the Percent viability (MCC13 cells (VN-MCC); Log (M) -9.15343) was 112.0% and the Percent viability (MCC13 cells (VN-MCC); Log (M) -9.63055) was 98.4%. It also gave a Percent viability (MCC13 cells (VN-MCC); Log (M) -10.1077) of 100.0%, a Percent viability (UISO cells (VN-MCC); Log (M) -5.33646) of 0.3% and a Percent viability (UISO cells (VN-MCC); Log (M) -5.81358) of 33.6%. For the same molecule, the Percent viability (UISO cells (VN-MCC); Log (M) -6.2907) was 52.9%, the Percent viability (UISO cells (VN-MCC); Log (M) -6.76782) was 71.1% and the Percent viability (UISO cells (VN-MCC); Log (M) -7.24494) was 86.6%. The Percent viability (UISO cells (VN-MCC); Log (M) -7.72207) was 91.6%, the Percent viability (UISO cells (VN-MCC); Log (M) -8.19919) was 90.7% and the Percent viability (UISO cells (VN-MCC); Log (M) -8.67631) was 81.3%. The Percent viability (UISO cells (VN-MCC); Log (M) -9.15343) was 106.7%, the Percent viability (UISO cells (VN-MCC); Log (M) -9.63055) was 103.4% and the Percent viability (UISO cells (VN-MCC); Log (M) -10.1077) was 104.7%. It also gave a Percent viability (MCC26 cells (VN-MCC); Log (M) -5.33646) of 11.3%, a Percent viability (MCC26 cells (VN-MCC); Log (M) -5.81358) of 9.7% and a Percent viability (MCC26 cells (VN-MCC); Log (M) -6.2907) of 42.5%. The Percent viability (MCC26 cells (VN-MCC); Log (M) -6.76782) was 75.5%, the Percent viability (MCC26 cells (VN-MCC); Log (M) -7.24494) was 88.6% and the Percent viability (MCC26 cells (VN-MCC); Log (M) -7.72207) was 92.0%. For the same molecule, the Percent viability (MCC26 cells (VN-MCC); Log (M) -8.19919) was 93.6%, the Percent viability (MCC26 cells (VN-MCC); Log (M) -8.67631) was 92.5% and the Percent viability (MCC26 cells (VN-MCC); Log (M) -9.15343) was 92.1%. For the same molecule, the Percent viability (MCC26 cells (VN-MCC); Log (M) -9.63055) was 87.6%, the Percent viability (MCC26 cells (VN-MCC); Log (M) -10.1077) was 89.3% and the “potency in VP-MCC cell lines versus other human cancer cell lines (GDSC)” value (GDSC cancer cell lines) was “higher in VP-MCC cell lines than in hundreds of other human cancer cell lines”. It also gave a Percent viability (MKL-1 cells (VP-MCC); Log (M) -5.33646) of 0.6%, a Percent viability (MKL-1 cells (VP-MCC); Log (M) -5.81358) of 0.7% and a Percent viability (MKL-1 cells (VP-MCC); Log (M) -6.2907) of 25.3%. The Percent viability (MKL-1 cells (VP-MCC); Log (M) -6.76782) was 39.6%, the Percent viability (MKL-1 cells (VP-MCC); Log (M) -7.24494) was 24.8% and the Percent viability (MKL-1 cells (VP-MCC); Log (M) -7.72207) was 28.8%. For the same molecule, the Percent viability (MKL-1 cells (VP-MCC); Log (M) -8.19919) was 32.4%, the Percent viability (MKL-1 cells (VP-MCC); Log (M) -8.67631) was 60.3% and the Percent viability (MKL-1 cells (VP-MCC); Log (M) -9.15343) was 97.5%. It also gave a Percent viability (MKL-1 cells (VP-MCC); Log (M) -9.63055) of 94.1% and a Percent viability (MKL-1 cells (VP-MCC); Log (M) -10.1077) of 98.1%.
